# In publication PMC4245125, “Pharmacological and Behavioral Characterization of D-473, an Orally Active Triple Reuptake Inhibitor Targeting Dopamine, Serotonin and Norepinephrine Transporters” (PLoS ONE, 2014):
# Tests used:
# Beta2 = target: T1, Beta2 (Homo sapiens, UniProt P07550); experiment: NIMH PDSP receptor binding, Beta2; settings: [125I]Iodopindolol, read-out: % Inhibition of Binding at 10 µM D-473
# T1 construct: purchased NIMH PDSP
# Alpha1D = target: T2, Alpha1D (Homo sapiens, UniProt P25100); experiment: NIMH PDSP receptor binding, Alpha1D; settings: [3H]Prazosin, read-out: % Inhibition of Binding at 10 µM D-473
# T2 construct: purchased NIMH PDSP
# T2 sequence (P25100 whole entry): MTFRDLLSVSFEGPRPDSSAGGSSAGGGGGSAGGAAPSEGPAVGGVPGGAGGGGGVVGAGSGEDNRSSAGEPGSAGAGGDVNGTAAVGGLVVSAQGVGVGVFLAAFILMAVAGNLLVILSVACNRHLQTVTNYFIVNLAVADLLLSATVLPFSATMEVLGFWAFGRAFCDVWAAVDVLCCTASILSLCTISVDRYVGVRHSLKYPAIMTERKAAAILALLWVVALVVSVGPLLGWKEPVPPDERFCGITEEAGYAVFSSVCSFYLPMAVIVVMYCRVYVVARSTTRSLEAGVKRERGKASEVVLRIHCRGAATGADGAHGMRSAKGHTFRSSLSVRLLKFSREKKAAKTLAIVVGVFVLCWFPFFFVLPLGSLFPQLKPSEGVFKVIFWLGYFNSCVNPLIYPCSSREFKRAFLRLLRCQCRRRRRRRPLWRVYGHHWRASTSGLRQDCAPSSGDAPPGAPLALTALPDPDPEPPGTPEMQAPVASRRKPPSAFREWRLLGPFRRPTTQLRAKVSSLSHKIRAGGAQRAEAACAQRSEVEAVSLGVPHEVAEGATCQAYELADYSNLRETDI
# µ-Opioid = target: T3, µ-Opioid (Homo sapiens, UniProt P35372); experiment: NIMH PDSP receptor binding, µ-Opioid; settings: [3H]Diprenorphine, read-out: % Inhibition of Binding at 10 µM D-473
# T3 construct: purchased NIMH PDSP
# T3 sequence (P35372 whole entry): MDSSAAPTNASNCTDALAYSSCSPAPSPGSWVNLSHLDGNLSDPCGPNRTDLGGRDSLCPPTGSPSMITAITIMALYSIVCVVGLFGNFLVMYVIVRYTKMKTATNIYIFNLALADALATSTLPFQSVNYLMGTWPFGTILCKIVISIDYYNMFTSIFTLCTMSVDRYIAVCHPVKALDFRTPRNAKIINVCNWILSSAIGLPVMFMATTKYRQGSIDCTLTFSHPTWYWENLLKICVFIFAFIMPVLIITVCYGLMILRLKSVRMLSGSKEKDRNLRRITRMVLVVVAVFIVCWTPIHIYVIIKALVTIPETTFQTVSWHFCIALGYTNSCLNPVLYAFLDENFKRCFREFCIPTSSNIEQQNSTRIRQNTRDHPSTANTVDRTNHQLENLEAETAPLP
# [1] = test system: extracellular DA, 5-HT, NE and metabolites in the medial prefrontal cortex (mPFC); experiment: Microdialysis in medial prefrontal cortex, monoamines and metabolites; format: in vivo, rat; settings: 10 mg/kg i.p.
# Procedure: Adult male Sprague-Dawley rats (Harlan, Indianapolis, IN) weighing between 250 and 350 g were used for all experiments. Rats were housed in a temperature and humidity controlled room with 12 hr light/dark cycles with food and water available ad libitum. Adequate measures were taken to prevent animal pain and discomfort. All animals were treated as approved by the University of Michigan Unit for Laboratory Animal Medicine (ULAM) and in accordance with the National Institute of Health (NIH) Guidelines for the Care and Use of Laboratory Animals.
# Rats were anesthetized with using an isoflurane vaporizer that was interfaced to a model 963 Ultra Precise stereotaxic instrument with 0.1 mm resolution (David Kopf Instruments, Tujunga, CA). Concentrically designed microdialysis probes (1 mm dialyzing length) were built in house then implanted bilaterally into the dorsal lateral striatum (DLS) and the medial prefrontal cortex (mPFC) according to the following coordinates from bregma and dura (in mm): AP +1, ML +3.3, DV –5.7 and AP +3, ML −0.5, DV −5, respectively (Paxinos and Watson, 2007). […] 1 mm probes were selected for higher spatial resolution and lower tissue damage compared to larger probes. Probes were secured to the skull by acrylic dental cement and metallic screws. Following surgery, rats were allowed to recover and experiments were run 24 hr after probe implantation. Microdialysis probes were flushed at a flow rate of 2 µl/min with aCSF (composition in mM: CaCl2 1.2; KCl 2.7, NaCl 148 and MgCl2 0.85) for 2 hr using a Chemyx Fusion 400 syringe pump (Chemyx, Stafford, TX). Perfusion flow rate was then reduced to 1 µl/min and samples were collected every 10 min. Baseline values were collected for 50 min and then the drug D-473 was injected (10 mg/kg, i.p.) and samples were collected for an additional 2 h. When experiments were completed, animals were euthanized and then brains were extracted and frozen at −80°C until histology.
# Dopamine, norepinephrine (NE), serotonin (5HT), DOPAC, homovanillic acid (HVA) and 5-hydroxyindole acetic acid (5-HIAA) were analyzed using a benozyolation derivitization LC-MS method recently described by our laboratory. Briefly, 10 µl dialysate samples were derivatized by adding 5 µl of 100 mM sodium tetraborate, 5 µl of 2% benzoyl chloride in acetonitrile, and then 5 µl of a stable ^13C benzoylated isotope internal standard mixture was then added to improve quantitation. A Thermo Fisher Accela UHPLC (Waltham, MA) system automatically injected 5 µl of the sample onto a Waters (Milford, MA) HSS T3 reverse phase HPLC column (1 mm X 100 mm, 1.8 µm). Mobile phase A consisted of 10 mM ammonium formate and 0.15% formic acid. Mobile phase B was pure acetonitrile. Analytes were detected by an Thermo Fisher TSQ Quantum Ultra triple quadrupole mass spectrometer operating in multiple reaction monitoring (MRM) mode. The assay limits of detection were (nM in dialysate) for DA, 0.3; NE, 0.2; 5HT, 0.1; HVA, 0.5; DOPAC, 2; and 5HIAA, 5. […] Average standard deviation in above basal levels was 18%.
# All neurochemical data were transformed into percent baseline with baseline values all averaging 100%. Statistical analysis was performed by t-test analysis of every point relative to baseline values (i.e. 100%) using Prism 6 (Graphpad Software Inc, La Jolla, CA). P values <0.05 were considered to be statistically significant.
# T1 sequence (P07550 whole entry): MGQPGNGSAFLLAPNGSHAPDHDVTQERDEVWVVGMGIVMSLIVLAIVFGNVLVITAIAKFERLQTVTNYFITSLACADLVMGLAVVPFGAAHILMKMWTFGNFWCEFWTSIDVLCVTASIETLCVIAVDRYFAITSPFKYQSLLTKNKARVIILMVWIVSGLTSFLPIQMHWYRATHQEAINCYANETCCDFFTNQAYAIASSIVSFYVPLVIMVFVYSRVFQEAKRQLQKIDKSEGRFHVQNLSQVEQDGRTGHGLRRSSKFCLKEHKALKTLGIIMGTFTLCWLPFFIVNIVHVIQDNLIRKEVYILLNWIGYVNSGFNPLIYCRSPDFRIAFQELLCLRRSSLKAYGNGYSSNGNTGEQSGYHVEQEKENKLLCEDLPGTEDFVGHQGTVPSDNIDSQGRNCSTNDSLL
smiles,measurement,setting,value
"COc1ccc(CN[C@@H]2CO[C@H](C(c3ccc(F)cc3)c3ccc(F)cc3)C[C@H]2O)cc1 [Compound D-473, (2S,4R,5R)-2-(bis(4-fluorophenyl)methyl)-5-((4-methoxybenzyl)amino)tetrahydro-2H-pyran-4-ol]",inhibition at 10 µM,Beta2,-4.4%
same,inhibition at 10 µM,Alpha1D,41.8%
same,inhibition at 10 µM,µ-Opioid,20.5%
same,Reductions in dialysate DOPAC,"[1]; Figure 8, region not specified",up to 35%
same,Change in the level of 5-HIAA,[1]; region not specified (mPFC and DLS studied),did not observe any change
same,Effect on HVA,[1]; mPFC,lack of effect
same,Increase of 5-HT,[1]; mPFC,> 3 fold
same,Increase of DA,[1]; mPFC,4 fold
same,Increase of NE,[1]; mPFC,> 5 fold
same,"Reduction of DOPAC, maximal",[1]; mPFC,35–40%
same,"Extracellular 5-HT at the end of two hours, percent baseline","[1]; mPFC, baseline 100%",150%
same,"Extracellular 5HT, maximal, percent baseline","[1]; mPFC, baseline 100%",339%
same,"Extracellular DA at the end of two hours, percent baseline","[1]; mPFC, baseline 100%",122%
same,"Extracellular DA, maximal, percent baseline","[1]; mPFC, baseline 100%",394%
same,"Extracellular NE at the end of two hours, percent baseline","[1]; mPFC, baseline 100%",173%
same,"Extracellular NE, maximal, percent baseline","[1]; mPFC, baseline 100%",547%
